Data reported in patent publication US20230047208A1, “RNA Splicing Modulation” (The General Hospital Corporation, priority 2020, published 2023).

Tested on: wildtype (WT) human fibroblast cell lines
Experiment: Transcriptome-wide splicing by RNA sequencing (RNASeq), exon triplet PSI change;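 for Effect: six WT fibroblast lines treated seven days versus DMSO vehicle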;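 for T-PSI: T-PSI is average treated PSI after seven days of treatment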
Assay type: cell-based
Parameters: key to Effect: Exclusion; Inclusion; Unchanged
From the text: FIG. 2A provides a representation of an exon triplet. Exon U is upstream of Exon X, which is upstream of Exon D. R1, R2 and R3 represent RNA sequencing (RNASeq) reads spanning the regions between two adjacent exons. UI1, I1X, XI2 and I2D are four regions flanking the four splice sites of the exon-triplet. Each flanking region consists of 25 exonic base pairs and 75 intronic base pairs.
FIG. 2B provides a volcano plot showing the ψ (PSI: Percent Spliced-In) changes in splicing after treatment with Compound (I). Each dot represents one of the 161,097 expressed exon triplets in human fibroblasts. The x axis represents the ψ changes after treatment and the y axis represents the False Discovery Rate (FDR) (log 10 transformed). […] The horizontal dashed line indicates an FDR of 0.1. The dots on the right side of the right vertical dashed line and above the horizontal dashed line represent the exon-triplets with an increase for Exon X inclusion (Δψ≥0.1 and FDR<0.1) while the dots on left side of the left vertical dashed line and above the horizontal dashed line represent an increase for Exon X exclusion (Δψ≤−0.1 and FDR<0.1). Black dots in-between the two vertical dashed lines represent exon-triplets unchanged from the treatment.
In some aspects, analysis is performed on data derived from the assay to measure the magnitude of splicing to determine the amount of exons spliced into an mRNA transcript that is produced in the presence of Compound (I) relative to the amount in the absence of Compound (I) or presence of a negative control. In a preferred aspect, the method utilized is calculation of change in Percent Spliced In (ΔPSI). […] The ΔPSI value is derived from the formula: […]
The values for “a” and “b” represent the number of reads supporting the probability for potential inclusion or exclusion of an exon in an RNA transcript. The “a” value is derived from the number of reads within an exon triplet covering, in 5′ to 3′ order: the last few bases (>1 nucleotide) of an upstream exon operably linked to the first few bases (>1 nucleotide) of a middle exon. The “b” value is derived from the number of reads within an exon triplet covering, in 5′ to 3′ order: the last few bases (>1 nucleotide) of the middle exon operably linked to the first few bases (>1 nucleotide) of a downstream exon. The number of reads will indicate whether the splice junction of a middle exon has been identified as potentially having a CNN Motif(s) by the CNN Model described herein, wherein the inclusion or exclusion of the middle exon may be modulated in the presence of Compound (I) to produce one or more mature RNA isoforms from the gene transcript. The value for “c” represents the number of reads supporting the exclusion of the middle exon.
The effect on splicing modulation and corresponding splice differences toward exon inclusion or exclusion was determined by counting the RNASeq reads covering two splice junctions of exon triplets (three consecutive exons: Exon U, Exon X, Exon D) and the corresponding intervening introns, then comparing the change in Percent Spliced In (ΔPSI or Δψ) of the middle exon (Exon X) after treatment (as shown in FIG. 2A)^52,53. 934 exon triplets were identified showing differential middle exon inclusion or exclusion in response to Compound (I) treatment. Of these, 254 were exon inclusion events (Δψ≥0.1 and FDR<0.1) and 680 were exon exclusion events (Δψ≤−0.1 and FDR<0.1) (as shown in FIG. 2B). […] The splicing results were evaluated by RT-PCR in independent replicate experiments, confirming all the calculated Δψ values. […]

[1] = PCNXL2 Exon 233160892-233161145
[2] = PCNXL2 Exon 233353645-233353677
[3] = PDE4DIP Exon 144859759-144859998

Clc1nc(NCc2ccncc2)c2cc[nH]c2n1 [Compound (I), 2-chloro-N-(pyridin-4-ylmethyl)-7H-pyrrolo[2,3-d]pyrimidin-4-amine]
ΔPSI (PARP6 Exon 72543186-72543295): 0.148 | Effect (PARP6 Exon 72543186-72543298): Inc | T-PSI (PARP6 Exon 72543186-72543298): 0.870 | ΔPSI (PARP6 Exon 72543186-72543298): 0.164 | Effect (PARP11 Exon 3938076-3938196): Exc | T-PSI (PARP11 Exon 3938076-3938196): 0.250 | ΔPSI (PARP11 Exon 3938076-3938196): −0.245 | Effect (PATL1 Exon 59423429-59423518): Exc | T-PSI (PATL1 Exon 59423429-59423518): 0.710 | ΔPSI (PATL1 Exon 59423429-59423518): −0.168 | Effect (PCBP2 Exon 53861589-53861627): Exc | T-PSI (PCBP2 Exon 53861589-53861627): 0.431 | ΔPSI (PCBP2 Exon 53861589-53861627): −0.218 | Effect (PCID2 Exon 113845186-113845289): Exc | T-PSI (PCID2 Exon 113845186-113845289): 0.757 | ΔPSI (PCID2 Exon 113845186-113845289): −0.217 | Effect (PCM1 Exon 17838100-17838264): Exc | T-PSI (PCM1 Exon 17838100-17838264): 0.444 | ΔPSI (PCM1 Exon 17838100-17838264): −0.135 | Effect [1]: Unc | T-PSI [1]: 0.891 | ΔPSI [1]: 0.009 | Effect [2]: Exc | T-PSI [2]: 0.899 | ΔPSI [2]: −0.101 | Effect (PCNXL4 Exon 60574304-60575045): Exc | T-PSI (PCNXL4 Exon 60574304-60575045): 0.498 | ΔPSI (PCNXL4 Exon 60574304-60575045): −0.151 | Effect (PCYT2 Exon 79863258-79863323): Exc | T-PSI (PCYT2 Exon 79863258-79863323): 0.804 | ΔPSI (PCYT2 Exon 79863258-79863323): −0.150 | Effect [3]: Inc | T-PSI [3]: 0.821 | ΔPSI [3]: 0.140 | Effect (PDGFC Exon 157782581-157782641): Unc | T-PSI (PDGFC Exon 157782581-157782641): 0.141 | ΔPSI (PDGFC Exon 157782581-157782641): 0.006 | Effect (PDLIM2 Exon 22449064-22449181): Exc | T-PSI (PDLIM2 Exon 22449064-22449181): 0.542 | ΔPSI (PDLIM2 Exon 22449064-22449181): −0.322 | Effect (PDP1 Exon 94930139-94930173): Unc | T-PSI (PDP1 Exon 94930139-94930173): 0.184 | ΔPSI (PDP1 Exon 94930139-94930173): −0.002 | Effect (PDPR Exon 70148773-70148833): Unc | T-PSI (PDPR Exon 70148773-70148833): 0.268 | ΔPSI (PDPR Exon 70148773-70148833): −0.005 | Effect (PDXDC2P Exon 70010714-70011906): Unc | T-PSI (PDXDC2P Exon 70010714-70011906): 0.246 | ΔPSI (PDXDC2P Exon 70010714-70011906): −0.004 | Effect (PDZD11 Exon 69509372-69509443): Inc | T-PSI (PDZD11 Exon 69509372-69509443): 0.417 | ΔPSI (PDZD11 Exon 69509372-69509443): 0.257 | Effect (PEAK1 Exon 77576225-77576372): Exc | T-PSI (PEAK1 Exon 77576225-77576372): 0.201 | ΔPSI (PEAK1 Exon 77576225-77576372): −0.170 | Effect (PEAK1 Exon 77657505-77657567): Unc | T-PSI (PEAK1 Exon 77657505-77657567): 0.806 | ΔPSI (PEAK1 Exon 77657505-77657567): −0.001 | Effect (PEX1 Exon 92138643-92138725): Exc | T-PSI (PEX1 Exon 92138643-92138725): 0.444 | ΔPSI (PEX1 Exon 92138643-92138725): −0.341 | Effect (PEX5 Exon 7354837-7354947): Exc | T-PSI (PEX5 Exon 7354837-7354947): 0.279 | ΔPSI (PEX5 Exon 7354837-7354947): −0.163 | Effect (PEX11A Exon 90229662-90229777): Exc | T-PSI (PEX11A Exon 90229662-90229777): 0.316 | ΔPSI (PEX11A Exon 90229662-90229777): −0.403 | T-PSI (PFDN1 Exon 139680001-139680167): 0.458 | ΔPSI (PFDN1 Exon 139680001-139680167): −0.326 | T-PSI (PFDN5 Exon 53690214-53690335): 0.175 | ΔPSI (PFDN5 Exon 53690214-53690335): 0.008 | T-PSI (PFDN5 Exon 53690238-53690335): 0.180 | ΔPSI (PFDN5 Exon 53690238-53690335): 0.007 | exon triplets showing differential middle exon inclusion or exclusion in response to treatment (RNASeq, human fibroblasts, out of 161,097 expressed triplets): 934 | unchanged-response set, exon triplets (Δψ≤0.01): 382 | exon exclusion events (Δψ≤−0.1 and FDR<0.1): 680 | exon inclusion events (Δψ≥0.1 and FDR<0.1): 254
